# Measurements as given in publication PMC10160475, “Biological evaluation and in silico studies of novel compounds as potent TAAR1 agonists that could be used in schizophrenia treatment” (Frontiers in Pharmacology, 2023).
# Key:
# [1] = test system: MK801-induced schizophrenia-like behavior; test: MK801-induced schizophrenia-like behavior (open field, distance traveled); format: in vivo, C57BI/6J mice
# Protocol: Ninety-nine male C57BI/6J mice were divided randomly into 11 groups. Mice were placed in a room 1 h before testing. They were administered (p.o.) vehicle (0.1 ml/10 g), 50A (0.3, 1, 3, and 10 mg/kg; 0.1 ml/10 g), or 50B (0.3, 1, 3, and 10 mg/kg; 0.1 ml/10 g). […] Then, mice were administered (i.p.) MK801 (0.8 mg/kg dissolved in physiologic saline; 0.1 ml/10 g). After 30 min, the distance that mice traveled was measured.
# Forty-six male C57BI/6J mice were divided randomly into four groups. The CN group contained four mice. […] The administration method described previously was employed.
# catalepsy = test: Catalepsy assay (bar test); format: in vivo, C57BI/6J mice; conditions: 100 mg/kg p.o., 30 and 90 min after administration
# Protocol: Twenty-four male C57BI/6J mice were divided randomly into four groups. Mice were placed in a room 1 h before testing. […] The front paws of mice were placed on a horizontal metal bar raised 2 inches above a Plexiglas™ platform 30 min and 90 min after administration. The time the front paws of mice were placed on the platform was recorded at ≤30 s per trial. Each test was repeated three times.
# human TAAR1 = biological target: T1, human TAAR1 (Homo sapiens, UniProt Q96RJ0); test: cAMP assay, functional agonist activity at human TAAR1; format: cell-based
# T1 construct: expressed in transfected cells; host or cells: cAMP Hunter CHO-K1 AGTRL1 Gi cells
# T1 sequence (Q96RJ0 1-339): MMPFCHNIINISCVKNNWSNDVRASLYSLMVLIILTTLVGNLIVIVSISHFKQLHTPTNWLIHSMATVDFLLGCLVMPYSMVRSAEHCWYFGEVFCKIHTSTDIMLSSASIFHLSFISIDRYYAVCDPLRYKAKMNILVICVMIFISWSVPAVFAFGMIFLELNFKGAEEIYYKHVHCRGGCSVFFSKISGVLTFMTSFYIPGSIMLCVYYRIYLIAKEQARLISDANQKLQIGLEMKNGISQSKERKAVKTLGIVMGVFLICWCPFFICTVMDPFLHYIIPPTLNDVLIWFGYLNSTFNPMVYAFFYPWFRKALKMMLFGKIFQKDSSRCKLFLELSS
# Protocol: Cells were seeded in a total volume of 20 µL into white-walled, 384-well microplates, followed by incubation at 37°C for the appropriate time before testing. Different concentrations of compounds were added to cells, and incubation was undertaken at 37°C for 10 min, with p-tyramine used as the MAX control. cAMP modulation was determined using the DiscoverX HitHunter cAMP XS + assay. Percentage activity was calculated using the following equation: Activity %=mean RLUtest sample – mean RLUvehicle control/mean RLUMAX control – mean RLUvehicle control×100%.
smiles,measurement,setting,value
"O=C1CCc2ccc(OCCCCN3CCN(c4cccc(Cl)c4Cl)CC3)cc2N1 [aripiprazole, reference compound]",MK801-induced schizophrenia-like behavior,"[1]; mice, aripiprazole 5 mg/kg p.o., MK801 0.8 mg/kg i.p.",significantly reduced
c1csc([C@H]2CNCCO2)c1 [Compound 50A],Time mice spent holding bars (catalepsy),catalepsy,did not increase this time
same,EC50,human TAAR1,6.25 µM
same,Emax,"human TAAR1; cAMP modulation, p-tyramine as MAX control, read-out: TAAR1 Agonist % Emax",64%
same,Inhibition of MK801-induced schizophrenia-like behavior (effective doses),"[1]; mice, single oral dose 0.3, 1, 3 and 10 mg/kg, MK801 0.8 mg/kg i.p.",only at 1 mg/kg
same,Distance moved by mice in the presence or absence of MK801,"[1]; single oral dose 0.3, 1, 3 and 10 mg/kg",significantly reduced the distance moved by mice
"Cc1nc2n(c(=O)c1CCN1CCC(c3noc4cc(F)ccc34)CC1)CCCC2 [risperidone, reference compound]",MK801-induced schizophrenia-like behavior,"[1]; mice, risperidone 0.1 mg/kg p.o., MK801 0.8 mg/kg i.p.",significantly reduced
